According to paper PMC12397098, “3-Monothiopomalidomide, a new immunomodulatory imide drug (IMiD), blunts inflammation and mitigates ischemic stroke in the rat” (GeroScience, 2025):
Read-outs that look alike come from different tables or passages of the source.

How the values were obtained:
[1] = tested on: TNF-α in LPS-challenged human PBMCs; assay: TNF-α in media of LPS-challenged human PBMCs; assay type: cell-based; conditions: 10 ng/ml LPS, 24 h, 3-MP 0 to 30 μM, vs LPS alone
Procedure: (§1) Human peripheral blood mononuclear cells (PBMCs), purchased from ATCC (Cat no. PCS-800–011, Lot no. 81215231, Manassas, VA, USA), were washed with ice-cold HBSS (ATCC 30–2213) containing 10% fetal bovine serum (FBS: ATCC 30–2020) and used for the experiment directly. The washed cells were suspended and maintained in RPMI media supplemented with 10% FBS, penicillin 100 U/mL, and streptomycin 100 µg/mL at 37 °C and 5% CO2. Approximately 5 × 10^5 cells were seeded into 24-well plates and allowed to equilibrate for 2 h. Pomalidomide or 3-MP, dissolved in 100% tissue culture grade dimethylsulfoxide (DMSO: Sigma Aldrich, St Louis, MO, USA), was then added to the wells. The final concentrations of drugs were 0.0, 0.6, 1.0, 10, 30, and 60 µM (n = 3–4 for each group). At 1 h after initiation of treatment, the cells were challenged with lipopolysaccharide (LPS, Sigma Aldrich, E.Coli 055:B5, Cat no. L4005-100MG, Lot no. 0000218759, Endotoxin Unit: 500,000 EU/mg, at a concentration of 10 ng/mL), and the media was collected after a further 24 h for evaluation of lactate dehydrogenase (LDH) activity as a marker of drug-induced cellular toxicity and concentrations of nitrite (In Vitro Toxicology Assay Kit, Lactic Dehydrogenase based, Promega, Cat no. G7891, Madison, WI, USA) (Griess Reagent System, Promega, Cat no. G2930) and TNF-α (human TNF-α ELISA MAX™ Deluxe Set Cat no. […]

human PBMCs = assay: LDH in media of LPS-challenged human PBMCs (cellular toxicity); assay type: cell-based; conditions: 10 ng/ml LPS, 24 h, 3-MP 0 to 30 μM, vs LPS alone
Procedure: as §1

[2] = tested on: LPS-induced cytokines (TNF-α, IL-6, IL-10, IL-13) in plasma and cerebral cortex; assay: Systemic and brain LPS anti-inflammatory study in rats; assay type: in vivo; conditions: rat, 4 h
Procedure: They were administered, via the intraperitoneal (I.P.) route, nano-formulated 3-MP at a dose of 13.25 or 26.5 mg/kg (equimolar to a clinically translatable dose of 12.5 and 25 mg/kg thalidomide), vehicle or pomalidomide (25 mg/kg). One hour later, animals were administered either LPS (1 mg/kg, E.Coli 055:B5, Sigma Aldrich, in normal saline, 0.5 mg/mL) or an alike volume of saline (without LPS) via the I.P. route. The LPS dose was selected from prior pilot studies to provide a substantial but sub-maximal rise in plasma proinflammatory cytokine levels, in line with our prior research. The selected 3-MP and pomalidomide doses were chosen as they are equimolar to, or are less than, doses of thalidomide and analogues that have been verified to be well tolerated in our previous studies and are of translational relevance to humans. Four hours after LPS administration, the animals were euthanized, and blood and brain tissues were collected and placed on wet ice. Plasma was quickly separated from blood by centrifugation (10,000 × g, 5 min, 4 °C) and together with the brain samples (cerebral cortex) was stored at − 80 °C. At a later time, cerebral cortex samples were sonicated in a TRIS-based lysis buffer (Mesoscale Discovery) with 3 × protease/phosphatase inhibitors (Halt™ Protease and Phosphatase Inhibitor Cocktail, Thermo Fisher Scientific, Waltham, MA, USA). Samples were then centrifuged (10,000 × g, 5 min, 4 °C), supernatant separated, and protein concentrations were quantified by bicinchoninic acid assay (BCA, Thermo Fisher Scientific). Rat plasma and cerebral cortex samples were analyzed by multi-proinflammatory cytokine ELISA (V-PLEX Proinflammatory Panel 2 Rat Kit, Mesoscale Discovery) following the manufacturer’s protocol to quantify TNF-α, IL-6, IL-10, and IL-13 levels.

[3] = Ex vivo plasma stability, rat; assay type: in vitro ADME; conditions: 100 μg/ml, 37 °C, 180 min
Procedure: Ex vivo evaluations of drug plasma and liver microsomal time-dependent breakdown are routinely undertaken to initially characterize the metabolic stability of new pharmacological compounds and were performed by WuXi AppTec (Shanghai, China; Study No. 424847–20,211,214-MMS). Rat and human plasma and liver microsomes were purchased from Xenotech (Sprague Dawley rat, Catalog no. R1000; BioIVT, Westbury, NY) or Corning (mixed human, Catalog no. 452117; Sigma). Rat and human plasma was incubated at 37 °C on a shaker and spiked with 3-MP (100 μg/ml, n = 3). Thereafter, samples were time-dependently (0 to 180 min) removed, immediately frozen (− 80 °C), and subjected to LC–MS/MS analysis at a later time.

[4] = Pharmacokinetics in the rat, I.V. and P.O.; assay type: in vivo
Procedure: To evaluate the metabolism of 3-MP, ex vivo plasma and liver homogenate studies were performed across species (rat and human), and in vivo pharmacokinetic studies were performed in rats following intravenous (I.V.) and oral (P.O.) administration of 3-MP (5 mg/kg) to time-dependently follow its disappearance from the plasma compartment.
Fig. 5 3-MP pharmacokinetics. 3-MP was administered to rats via the intravenous (I.V.) and oral (P.O.) routes, and time-dependent plasma levels were obtained and subjected to LC–MS/MS analysis (n = 3/group). Pharmacokinetic profile of 3-MP following a 5 mg/kg dose by either the I.V. or P.O route. Time-dependent plasma concentrations of 3-MP (n = 3/group)

[5] = tested on: MCAo-induced brain infarction; assay: MCAo ischemic stroke: brain infarct volume (TTC); assay type: in vivo, rat; conditions: 3-MP 10.58 and 21.17 mg/kg I.P. (doses combined), 48 h
[6] = Sprague Dawley, rat, 1 μM
[7] = 13.25 and 26.5 mg/kg I.P. 1 h before LPS 1 mg/kg I.P.
[8] = iv, rat plasma, I.V. bolus 5 mg/kg

In the case of Nc1cccc2c1C(=S)N(C1CCC(=O)NC1=O)C2=O (stereo not shown) [3-MP, 3-Monothiopomalidomide], the “TNF-α levels in media” value [1] is reported as “dose-dependently reduced”, the LDH media levels (human PBMCs) is reported as “without elevating” and the “LPS-mediated reduction in plasma IL-13” value ([2]; 3-MP both doses I.P., LPS 1 mg/kg) is reported as “abated”. For the same molecule, the “LPS-mediated elevations in brain IL-13” value ([2]; 3-MP both doses and pomalidomide I.P., LPS 1 mg/kg) was “maintained”, the “decline in IL-6 brain levels” value ([2]; 3-MP low dose 13.25 mg/kg I.P., pomalidomide 25 mg/kg I.P., LPS 1 mg/kg) was “failed to achieve statistical significance” and the “LPS-induced rise in plasma IL-6” value [2, 7] was “reduced”. For the same molecule, the “LPS-induced rise in plasma TNF-α” value [2, 7] was “reduced”, the “IL-10 elevation induced by LPS in plasma or brain” value ([2]; high- or low-dose 3-MP or pomalidomide I.P., LPS 1 mg/kg) was “not lessened” and the “stability in rat plasma” value [3] was “relatively stable”. For the same molecule, the AUC(0-inf) [4, 8] was 15200 ng·h/mL, the AUC(0-t) [4, 8] was 15100 ng·h/mL and the C0 [4, 8] was 8150 ng/mL. For the same molecule, the clearance ([4]; plasma, iv, rat, I.V. bolus 5 mg/kg) was 5.65 mL/min/kg, the Vd ([4]; plasma, iv, rat, I.V. bolus 5 mg/kg, read-out: Vdss) was 0.693 L/kg and the AUC(0-inf) ([4]; po, rat plasma, P.O. 5 mg/kg) was 5860 ng·h/mL. For the same molecule, the AUC(0-t) ([4]; po, rat plasma, P.O. 5 mg/kg) was 5560 ng·h/mL, the Cmax ([4]; po, rat plasma, P.O. 5 mg/kg) was 1020 ng/mL and the T1/2 ([4]; rat plasma, P.O. 5 mg/kg, 5 mg/kg) was 3.21 h. For the same molecule, the half-life ([4]; rat, plasma, iv, 5 mg/kg, rat plasma, I.V. bolus 5 mg/kg) was 1.56 h, the bioavailability ([4]; rat, plasma, oral, 5 mg/kg, rat, P.O. vs I.V., 5 mg/kg) was roughly 38.5% and the half-life ([4]; rat, plasma, po, 5 mg/kg, rat plasma, P.O. 5 mg/kg) was 3.2 h. It also gave a Tmax ([4]; rat, plasma, po, 5 mg/kg, rat plasma, P.O. 5 mg/kg, read-out: Tmax) of 1.67 h, a Tmax ([4]; rat, plasma, po, 5 mg/kg, rat, oral gavage 5 mg/kg, read-out: time of peak concentration in plasma (converted)) of 1.67 h and an infarct volume ([5]; rat MCAo 60 min + reperfusion, TTC) of 4.32 ± 1.33%. The “reduction of infarct volume versus MCAo + vehicle” value ([5]; rat MCAo) was 56%, the “reduction of 3-MP levels following 60-min incubation” value ([6]; 60 min) was 24.3% and the “Remaining (NCF = 60 min)” value ([6]; microsomes, 1 h) was 116.4%. The “Remaining (T = 60 min)” value ([6]; microsomes, 1 h) was 75.7%.
